Laboratory results published in patent US20050191308A1 (priority 1999, published 2005).

Test system: M. tuberculosis (Erdman)
Details: in vivo

## CCCCCCCCCCCCCCCCCC[N+](C)(C)CCCCCCCCCCCCCCCCCC.[Br-] [DDA]
  Log10 resistance, Lung, Experiment I: <0.05 log10
  Log10 resistance, Spleen, Experiment I: <0.05 log10
